Results reported in patent US12559784B2 (priority 2023, dated 2026).
Values joined by “and” are separate entries in the source; they are usually repeats but may differ in a detail not shown here. Equal entries are not always repeated. Where two headings read alike, the source gives them in different places.

Key:
[1] = test system: alkaline phosphatase; type: biochemical
Method: New stocks were made the of the 1:100 alkaline phosphatase reaction reagents.
The conditions included: 1:100 dilution of alkaline phosphatase reaction reagent with two solvents (buffered saline and ethanol), dosing in 0.5 mL microcentrifuge tubes with 20 μL of chemical added to 180 μL of reaction reagent, and incubating with p-Nitrophenyl phosphate disodium salt (PNPP) substrate for 1-hour.

[2] = test system: alkaline phosphatase; test: Alkaline phosphatase experiment, seventh week: 1:100 vs 1:1000 dilution, room temperature vs 37° C.
Method: Preparation • 1. Alkaline phosphatase reaction reagent • a. 1:100 • i. PBS: Take 400 μL of AP (1:10) stock solution, add to 3.6 mL PBS. Vortex mix and then invert to mix 10 times • ii. […] Vortex mix and then invert to mix 10 times • b. 1:1000 • i. PBS: Take 400 μL of AP (1:100) stock solution, add to 3.6 mL PBS. Vortex mix and then invert to mix 10 times • ii. […] Vortex mix and then invert to mix 10 times • 2. Prepare 0.5 mL microcentrifuge tubes for dosing • a. One set for room temperature, one set for 37° C. • 3. Prepare 96-well plates for PNPP reading (3 wells for each test chemical) • a. Aliquot with 200 μL PNPP Conditions • 1. 1:100 in PBS at RT • 2. […] 1:100 in PBS at 37° C. • 4. […] 1:1000 in PBS at RT • 6. […] 1:1000 in PBS at 37° C. • 8. […] Procedure • 1. In each microcentrifuge tube for each condition, add 180 μL of the corresponding AP reaction reagent • 2. Add 20 μL of the test chemical to each microcentrifuge tube • 3. Incubate for 4 hours (one set at room temperature; one set at 37° C.) • 4. To prepared 96-well plates with 200 μL PNPP aliquoted, add 20 μL of each microcentrifuge tube to the corresponding well • 5.

[3] = test system: alkaline phosphatase; details: 30 μL chemical in 300 μL reagent 1:100, 4 hours room temperature, 3 mL PNPP 1 hour
Method: We changed the test chemical dosage to 30 μL and the alkaline phosphatase reaction reagent to 300 μL, but kept the incubation to 4 hours at room temperature.
PBS: Take 4 mL of AP (1:10) stock solution, add to 36 mL PBS. Vortex mix and then invert to mix 10 times • ii. […] Vortex mix and then invert to mix 10 times • b. PBS (lx) • c. […] Prepare 4 mL glass vials for dosing • a. Four sets • i. R1+ (PBS-AP) • ii. R1− (PBS) • iii. […] Prepare 96-well plates for PNPP reading (3 wells for each test chemical) Procedure • 1. Aliquot 300 μL of each reaction reagent to 4 mL glass vials. • 2. Add 30 μL of the test sample to each 4 mL glass vial. • 3. Incubate at room temperature for 4 hours. • 4. Aliquot 3 mL of PNPP to each 4 mL glass vial, let sit for 1 hr. • a. Aliquot 750 μL into the 4 mL glass vial to stop the reaction. • 5.

[4] = test system: skin; details: cited from earlier work; for in vivo GHS: skin
[5] = test system: alkaline phosphatase; type: biochemical; details: PBS; 18 hours room temperature, PNPP 1 hour
From the text: Our next study compared different dilutions of the original alkaline phosphatase source (1:10 [Activity: 1,000 units] and 1:100 [100 units]) and two sources of alkaline phosphatase, both purchased from Sigma Aldrich (St. Louis, MO). […] The five conditions for this study included original alkaline phosphatase (1:1), original alkaline phosphatase (1:10), original alkaline phosphatase (1:100), new alkaline phosphatase (1:1), and the blanks (phosphate buffered saline (PBS)). […] The two controls contained ink to determine if there would be any background effect.
Preparation • 1. Alkaline phosphatase reaction reagent • a. Original AP • i. Add 1 mL PBS into AP vial, pipette re-pipette 10 times, then invert with cap on, to mix well. Take this 1 mL and add to 50 mL conical tube filled with 40 mL PBS. Invert to mix 10 times, vortex mix, let sit 2 minutes, invert to mix again 10 times • ii. Prepare 2 more 50 mL conical tubes • 1. 1:10 • a. […] 1:100 • a. Take 4 mL of solution made above, add to 36 mL PBS. […] New AP • i. Add 400 mg into a 50 mL conical tube filled with 40 mL PBS. Invert to mix 10 times, vortex mix, let sit 2 minutes, invert to mix 10 more times. Check to make sure all suspended. If not, vortex mix and invert until fully suspended. • 2. Prepare 24-well plates • 3. […] Aliquot with 200 μL PNPP Conditions • 1. Old AP • 2. Old AP (1:10) • 3. Old AP (1:100) • 4. New AP • 5. Blank (PBS only) Procedure • 1. 24-well plates • a. Add 1 mL (using P1000, blue tips) of the prepared PBS-AP to the plate (for each condition) • b. Add 100 μL of the test material to the well, mix with the same pipette tip, dispose and repeat for the rest of the test materials • c. Wrap the plate in saran wrap and place into the container • d. […] To the prepared 96-well plate with 200 μL PNPP or PBS, add 20 μL from the 24-well plate • 3. Incubate for 1 hour • 4.

[6] = test system: alkaline phosphatase; type: biochemical; details: 3-hour exposure
[7] = test system: alkaline phosphatase; test: Alkaline phosphatase experiment, third week: with and without discs; type: biochemical; details: 405 nm, 100 μL chemical, 18 hours 37° C., PNPP 1 hour
From the text: Our next study focused on an in vitro method of detecting the potential of dermal corrosives to inhibit nonspecific phosphatases that may be released from the skin. We decided to test pure […] instead of relying on endogenous skin phosphatase. Alkaline phosphatase (Sigma Aldrich, St. Louis, MO) was purchased and suspended to make the reaction reagent (10,000 units). […] We note that the ratio used was 0.1 g/ml or 10% chemical—which is far in excess of any pharmaceutical applications. We further note that pharmaceutical enzyme inhibition tests, studies an use involve highly specific active site binding and these assays are conducted at ratios of micrograms-femtograms per ml. These studies are done at these ranges because these are the realistic concentrations for drug applications and therapeutics. […] So when a 50 Kg human consumes the tables, the tissues will be exposed at a 5 mg/50 kg=0.1 mg/kg=0.0000001 g/ml.
Next two quantitative methods were evaluated: 1) using the discs parts from our OptiSafe™ test method and 2) directly into the 24-well plate.
Preparation • 1. Alkaline phosphatase reaction reagent • a. Take 1 vial of AP, add 1 mL of PBS, mix by pipette/re-pipette 10 times • b. To a 50 mL conical tube, add 1 mL of the AP solution prepared above and 40 mL of PBS • 2. Prepare two 24-well plates (1 with discs, 1 without discs) • 3. […] Aliquot 200 μL PNPP and PBS Procedure • 1. Plate 1 (No Discs) • a. Add 1.25 mL from the prepared PBS-AP conical tube to each well (11 wells) • b. Add 100 μL of the test material to the well, mix with the same pipette tip, dispose and repeat for the rest of the test materials • c. Wrap the plate in saran wrap and place into the container • 2. Plate 2 (Discs) • a. Configure the 11 discs in the plate so the plate cover is stable • b. Add 1.25 mL from the prepared PBS-AP conical tube to each well (11 wells) • c. Add 100 μL of the test material to the center of the disc and repeat for the rest of the test materials • d. Put the plate cover on and place into the container • 3. […] Incubate for 1 hour Reading Results • 1. Measure at OD405

[8] = test system: alkaline phosphatase; type: biochemical; remark: listed apart in the source
Method: For the new study, the alkaline phosphatase was suspended in phosphate buffered saline (PBS) to make the reaction reagent. Then, 100 μL of the test chemical is added directly into the corresponding wells on a 24-well plate with 1.25 mL of alkaline phosphatase reaction reagent already aliquoted.
Preparation • 1. Alkaline phosphatase reaction reagent • a. Take 1 vial of AP, add 1 mL of PBS, mix by pipette/re-pipette 10 times • b. To a 50 mL conical tube, add 1 mL of the AP solution prepared above and 40 mL of PBS • 2. Prepare two 24-well plates • 3. […] Aliquot with 200 μL PNPP and PBS • 4. Prepare glass vials Repeat Procedure from 1-3-23 • 1. 24-well plate • a. Add 1.25 mL from the prepared PBS-AP conical tube to each well (11 wells) • b. Add 100 μL of the test material to the well, mix with the same pipette tip, dispose and repeat for the rest of the test materials • c. Wrap the plate in saran wrap and place into the container • 2. […] To the prepared 96-well plate with 200 μL PNPP or PBS, add 20 μL from the 24-well plate • 4. Incubate for 1 hour • 5. […] 24-well plate • a. Add 1.25 mL from the prepared PBS-AP conical tube to each well (11 wells) • b. Add 100 μL of the test material to the well, mix with the same pipette tip, dispose and repeat for the rest of the test materials • c. After 10 minutes, mix each well • 2. To the prepared 96-well plate with 200 μL PNPP or PBS, add 20 μL from the 24-well plate • 3. […] Aliquot 200 μL from the 24-well plate to glass vials filled with 2 mL of PNPP

[9] = test system: porcine skin; details: fresh porcine skin; 140 μL test chemical; R 1 and 2; >3A = outside readable range
Method: Our initial studies involved using fresh and frozen porcine skin “buttons”. These buttons were punched out of porcine skin (Spear Products, Cooopersburg, PA) using a […] biopsy punch tool. Three different kinds of skin buttons were prepared from fresh porcine skin, frozen porcine skin, and frozen porcine skin with the fatty layer removed. […] The next day, the tubes were taken out and vortexed and 500 μL of the solution was aliquoted into cuvettes to read at three different optical density wavelengths (OD190, OD290, OD300) to evaluate the best response.
Skin Preparation • 1. Thaw 2 pieces of frozen porcine skin • 2. Punch out buttons: 24 buttons in each tube filled with 40 mL PB S-Azide 96-well plate Preparation • 1. Plate layout for dosing:
Procedure • 1. Dose each tissue with 140 μL of test chemical • 2. […] Take out of incubator and vortex pulse 3× • 2. Aliquot 500 μL to cuvette and read results at OD190, OD290, and OD300
There were three readings done at an optical density of 190, 290, and 300 nm to evaluate the best response. […] To address the variable exposure conditions, our next studies involved placing a larger porcine skin section into a holder that exposes only the epidermis side with no potential for test chemical exposure from the backside or through the sides.

[10] = test system: phosphatase; type: biochemical, porcine
Method: Our next studies involved applying the test substance (500 μL) directly to the epidermis side of previously frozen porcine skin (Spear Products, Coopersburg, PA) that is placed in a holder that only exposes the epidermis side for 30 minutes, adding phosphate buffered saline (PBS) with added sodium azide (metabolic inhibitor that ensure no viable tissue), then aliquoting into cuvettes to read at an optical density of 300 nm. […] So, at the end of the initial studies described above, almost out of frustration, we tried to probe for released phosphatase activity using p-Nitrophenyl phosphate disodium salt (PNPP; Sigma Aldrich, St. Louis, MO) substrate solution to detect any presence of phosphatase.
Preparation • 1. Thaw 2 pieces of frozen porcine skin • a. Punch out as many skin discs and mount in holders • 2. Label cuvettes (3 for each chemical) Procedure • 1. Add 500 μL of test chemical to holder; incubate at room temperate for 30 minutes • 2. After 30 minutes, add 2 mL of PBS-Azide to both the holder containing the test chemical; forcefully pipette and re-pipette 10 times • 3. From the holder, aliquot 400 μL into 3 cuvettes; forcefully pipette and re-pipette 3 times before dispensing into cuvettes Reading Results • 1. Measure at OD300 for all cuvettes
Skin corrosion by GHS Category 1 dermal corrosive chemicals results in the disintegration of the epidermis into the dermis.

[11] = cited from earlier work
[12] = chemical lists of the experiments
[13] = 10 minutes test chemical exposure

| Structure (SMILES) | A2 - Results AVG [1] | A2 - Results R1 [1] | A2 - Results R3 [1] | OD405 readings, buffered saline alkaline phosphatase reaction reagent, glass vials (FIG. 11B) [3] | OD405 readings, ethanol alkaline phosphatase reaction reagent, glass vials (FIG. 11D) [3] | in vivo GHS [4, 12] | OD405 readings, original alkaline phosphatase 1:100 (FIG. 6D) [5] | further results |
| --- | --- | --- | --- | --- | --- | --- | --- | --- |
| CSc1ccc(C=O)cc1 | 3.333 | 3.379 | 3.266 | – | – | – | – | OD405 reading, 1:100 ethanol solvent condition, 37° C. ([2]; 37° C.): 0.857; OD405 reading, 1:100 ethanol solvent condition, room temperature ([2]; room temperature): 2.243 |
| Cc1ccc(C(C)C)cc1O | 2.597 | 2.462 | 2.772 | 1.990 and 1.926 | 3.444 and 3.465 and 3.398 | Cat. 1B/1C | 0.991 and 0.974 and 1.167 | – |
| ClCCCCBr [1-Bromo-4-chlorobutane] | 2.849 | 2.948 | 2.869 | – | – | – | – | OD405 reading, ethanol solvent, 10 μL dose, 30-minute PNPP (FIG. 7A) ([6]; 10 μL into 90 μL): 3.349; OD405 reading, ethanol solvent, 50 μL dose, 30-minute PNPP (FIG. 7A) ([6]; 50 μL into 50 μL): 0.700; OD405 reading, 1:1000 ethanol solvent condition (FIG. 9B) ([2]; 4-hour exposure, 1-hour PNPP): 0.799 |
| CN(C)CCCNCCCN [Dimethyldipropylenetriamine] | 0.117 | 0.119 | 0.114 | – | – | Cat. 1A | – | raw optical density reading (PNPP), with discs (FIG. 3A) ([7]; 1.25 mL reaction reagent (10,000 units)): 0.152 and 0.159 and 0.140; raw optical density reading (PNPP), without discs (FIG. 3B) ([7]; 1.25 mL reaction reagent): 0.138 and 0.176 and 0.133; raw optical density reading (PNPP), repeat without discs (FIG. 4) ([8]; 405 nm, 18 hours 37° C. exposure, PNPP 1 hour): 0.132 and 0.128 and 0.127; 10-minute PNPP incubation readings (FIG. 5A) [8, 13]: 3.500; 18-hour PNPP incubation readings (FIG. 5D) [8, 13]: 0.110; Corrosive ([4]; Yes/No): Yes; in vivo GHS ([4]; Tables 1A-1C and 2): Cat. 1A; OD190 [9]: >3A; percent of phosphatase measured (optical density compared to the naïve condition), average ([10]; average of two readings): 20.6%; percent of phosphatase measured (optical density compared to the naïve condition) ([10]; single readings): 23.5% and 17.7% |
| CC(C)N(C)C [Dimethylisopropylamine] | 0.244 | 0.226 | 0.295 | 3.354 and 3.466 and 3.502 | 2.926 and 2.922 and 2.852 | Cat. 1B/1C | 3.466 and 3.502 | solubility with water [11]: mostly insoluble with water |
| CCCCCCCC(=O)O [Octanoic Acid] | 2.342 | 2.12 | 2.129 | 1.427 and 1.415 and 1.416 | 3.283 and 3.408 and 3.220 | – | 3.462 and 3.491 and 3.333 | – |
| [K+].[OH-] [Potassium hydroxide (10%), Potassium hydroxide] | 0.108 | 0.107 | 0.108 | – | – | – | – | raw optical density reading (PNPP), repeat without discs (FIG. 4) [8]: 0.123 and 0.124 |
| CCCCCCCN [n-Heptylamine] | 0.175 | 0.170 | 0.193 | – | – | Cat. 1B/1C | 3.244 and 3.057 and 3.152 | solubility with water [11]: mostly insoluble with water |
